# Laboratory results as given in patent US9796728B2, “Cyclic carbonate monomer containing double-sulfur five-membered ring functional group, and preparation method thereof” (BrightGene Bio-Medical Technology Co., Ltd., priority 2014, dated 2017).
# System: B16 melanoma
# Assay: Treating melanoma-bearing mice with drug-loaded crosslinked nanoparticles
# Format: in vivo, C57BL/6 black mice
# Description: C57BL/6 black mice with body weight of about 18˜20 g, aged 4˜6 weeks were used in the experiment. The mice were weighed and equally grouped based on body weight, then 1×10^6 B16 melanoma cells were subcutaneously injected. After one week, when the size of the tumors was 30˜50 mm^3, the drug-loaded nanoparticles and free DOX were injected into the mice through tail veins at Day 0, 2, 4, 6, and 8, where the amount of DOX in drug-carrying nanoparticles was 10, 20, 30 mg/kg, […] From Day 0 to 15, the body weight of the mice in each group was weighed every day. The size of the tumor was precisely measured with Vernier scale, where the method for calculating the volume of tumors was: V=(L×W×H)/2, (where L was the length of the tumor, W was the width of the tumor, H was the thickness of the tumor). The survival of the mice was observed continuously till the 46th day.
# FIG. 11 is a curve graph showing that the doxorubicin-loaded polymer PEG5k-b-PCDC2.8k crosslinked nanoparticles inhibit tumor growth on melanoma-bearing mice; FIG. 12 is a curve graph showing the change of body weight of the mice. FIG. 13 is a curve graph showing the survival of the mice.
structure (smiles),measurement,setting,value
"COc1cccc2c1C(=O)c1c(O)c3c(c(O)c1C2=O)C[C@@](O)(C(=O)CO)C[C@@H]3O[C@H]1C[C@H](N)[C@H](O)[C@H](C)O1 [free DOX, doxorubicin]",body weight decrease,"DOX group, in 7 days",23%
same,day of treatment on which all mice died,"DOX group, printed as 30 mg/kg",10 days
same,toxic side effects on the mice,free DOX group,severe toxic side effect
